The values that follow come from DBAASP.

A word on the MIC: it is the lowest concentration found to suppress growth. A higher MIC goes with weaker potency.

In brackets after ≈: the same amount, converted by molar mass.

Test systems include Bacillus megaterium; Escherichia coli ML-35; Escherichia coli; Listeria innocua; Micrococcus luteus A270; Bacillus subtilis 168; Escherichia coli B; Pseudomonas aeruginosa; Staphylococcus aureus; Candida albicans; Escherichia coli UB1005.
Common to all, as to experiment: ≥ marks a high value that may be exact or a test limit, other limits are often not marked, values filed in µg/mL are converted to µM
Experiment [1] has as its system Escherichia coli ATCC 25922.
For experiment [2], the system named is Pseudomonas aeruginosa ATCC 27853.
The subject of experiment [3] is Staphylococcus aureus ATCC 12600.
The test system of experiment [4] is Streptococcus mutans ATCC 25175.
Experiment [5] concerns Salmonella enterica subsp. enterica serovar Typhimurium ATCC 14028.
Experiment [6] has as its system Staphylococcus aureus ATCC 25923.
The subject of experiment [7] is Pseudomonas aeruginosa 253.
For experiment [8], the system named is Pseudomonas aeruginosa 910.
Experiment [9] concerns Pseudomonas aeruginosa 919.
In experiment [10] the test system is Pseudomonas aeruginosa PAO1.
Experiment [11] relates to Candida albicans F7-39/IDE99.
In experiment [12] the test system is Micrococcus luteus CCM 144.
Experiment [13] concerns Enterococcus faecalis ATCC 29212.
Experiment [14] deals with Pseudomonas aeruginosa H103.
Experiment [15] has as its system Salmonella enterica serovar Typhimurium.
Experiment [16] relates to Staphylococcus epidermidis.
Experiment [17] relates to Bacillus cereus ATCC 11778.
The subject of experiment [18] is Escherichia coli ATCC 35218.
Experiment [19] deals with Pseudomonas aeruginosa ATCC 9027.
For experiment [20], the system named is Escherichia coli ATCC 27325.

With `CC[C@H](C)[C@H](NC(=O)[C@H](C)NC(=O)CNC(=O)[C@H](Cc1ccccc1)NC(=O)[C@H](CC(C)C)NC(=O)CN)C(=O)N[C@@H](C)C(=O)NCC(=O)N[C@@H](Cc1ccccc1)C(=O)N[C@H](C(=O)N[C@@H](CCCCN)C(=O)N[C@@H](CCCCN)C(=O)NCC(=O)N[C@@H](Cc1c[nH]c2ccccc12)C(=O)N[C@@H](CCCCN)C(=O)NCC(=O)N[C@@H](CCSC)C(=O)N[C@H](C(=O)N[C@@H](CCCCN)C(=O)NCC(N)=O)C(C)C)[C@@H](C)CC` [GLFGAIAGFIKKGWKGMVKG], the MIC in [1] stood at 7.6 µM (≈ 15.7 µg/mL); in experiment [2], 7.6 µM (≈ 15.7 µg/mL); in experiment [3], 3.8 µM (≈ 7.85 µg/mL); in experiment [4], 1.9 µM (≈ 3.92 µg/mL).

For `CC[C@H](C)[C@H](NC(=O)[C@H](CCCCN)NC(=O)[C@H](CCCCN)NC(=O)[C@H](CC(C)C)NC(=O)[C@H](CCCCN)NC(=O)[C@H](CCC(N)=O)NC(=O)[C@H](CCCCN)NC(=O)[C@@H](NC(=O)[C@H](CCCCN)NC(=O)[C@H](CC(N)=O)NC(=O)[C@H](CCCN=C(N)N)NC(=O)[C@H](Cc1ccccc1)NC(=O)[C@H](CCCCN)NC(=O)[C@H](CCCN=C(N)N)NC(=O)[C@H](CC(C)C)NC(=O)[C@H](CCCN=C(N)N)NC(=O)[C@H](CCCCN)NC(=O)[C@H](CCCN=C(N)N)NC(=O)[C@H](CC(C)C)NC(=O)CN)[C@@H](C)CC)C(=O)O` [GLRKRLRKFRNKIKQKLKKI], the MIC came out at 4 µM (≈ 10.2 µg/mL) with Bacillus megaterium; 4 µM (≈ 10.2 µg/mL) in experiment [1]; 2 µM (≈ 5.1 µg/mL) against Escherichia coli ML-35; 0.5 µM (≈ 1.28 µg/mL) in experiment [2]; 2 µM (≈ 5.1 µg/mL) in [5]; 4 µM (≈ 10.2 µg/mL) in experiment [6].

As to `CC[C@H](C)[C@H](N)C(=O)N[C@@H](CC(C)C)C(=O)N[C@@H](CCCCN)C(=O)N[C@@H](Cc1c[nH]c2ccccc12)C(=O)N[C@@H](CCCCN)C(=O)N[C@@H](CCCCN)C(=O)NCC(=O)N[C@@H](Cc1c[nH]c2ccccc12)C(=O)N[C@@H](Cc1c[nH]c2ccccc12)C(=O)N[C@@H](CCCCN)C(=O)N[C@@H](Cc1c[nH]c2ccccc12)C(=O)N[C@@H](Cc1ccccc1)C(=O)N[C@@H](CCCN=C(N)N)C(N)=O` [ILKWKKGWWKWFR], the MIC stood at 8 µM (≈ 14.9 µg/mL) in experiment [7], 4 µM (≈ 7.45 µg/mL) in experiment [8], 16 µM (≈ 29.8 µg/mL) in experiment [9] and 4 µM (≈ 7.45 µg/mL) in experiment [10].

`CC[C@H](C)[C@H](N)C(=O)N[C@@H](CC(C)C)C(=O)N[C@@H](CCCCN)C(=O)N[C@@H](Cc1c[nH]c2ccccc12)C(=O)N[C@@H](CCCCN)C(=O)N[C@@H](CCCN=C(N)N)C(=O)N[C@@H](CCCCN)C(=O)N[C@@H](Cc1c[nH]c2ccccc12)C(=O)N[C@@H](Cc1c[nH]c2ccccc12)C(=O)N[C@@H](CCCCN)C(=O)N[C@@H](Cc1c[nH]c2ccccc12)C(=O)N[C@@H](CCCN=C(N)N)C(=O)N[C@@H](CCCN=C(N)N)C(N)=O` [ILKWKRKWWKWRR]: the MIC stood at 4 µM (≈ 7.88 µg/mL) in experiment [7], 2 µM (≈ 3.94 µg/mL) in experiment [8], 16 µM (≈ 31.5 µg/mL) in experiment [9] and 1 µM (≈ 1.97 µg/mL) in [10].

In the case of `CC(C)C[C@H](NC(=O)[C@@H](NC(=O)[C@@H](NC(=O)[C@H](CC(C)C)NC(=O)[C@H](CC(C)C)NC(=O)[C@H](CO)NC(=O)[C@H](Cc1cnc[nH]1)NC(=O)[C@H](CO)NC(=O)[C@H](CC(C)C)NC(=O)[C@H](CC(C)C)NC(=O)[C@H](CCCCN)NC(=O)[C@H](Cc1ccccc1)NC(=O)[C@H](CC(N)=O)NC(=O)[C@@H](NC(=O)[C@@H]1CCCN1C(=O)[C@H](CC(=O)O)NC(=O)[C@@H](NC(=O)[C@H](CCCN=C(N)N)NC(=O)[C@H](CC(C)C)NC(=O)[C@H](CCCCN)NC(=O)[C@H](Cc1cnc[nH]1)NC(=O)[C@H](C)NC(=O)[C@H](Cc1cnc[nH]1)NC(=O)[C@@H](N)CC(C)C)C(C)C)C(C)C)C(C)C)[C@@H](C)O)C(=O)O` [LHAHKLRVDPVNFKLLSHSLLVTL], the MIC is 11 µM (≈ 30.3 µg/mL) with Escherichia coli, 11 µM (≈ 30.3 µg/mL) with Listeria innocua and no less than 45 µM against Micrococcus luteus A270.

Consider `CC[C@H](C)[C@H](NC(=O)[C@H](C)NC(=O)CNC(=O)[C@H](Cc1c[nH]c2ccccc12)NC(=O)[C@H](CCCCN)NC(=O)[C@@H](N)CC(C)C)C(=O)N[C@@H](CC(C)C)C(=O)N[C@@H](CCCCN)C(=O)N[C@@H](Cc1cnc[nH]1)C(=O)N[C@H](C(=O)N[C@H](C(=O)N[C@@H](CCCCN)C(N)=O)[C@@H](C)CC)[C@@H](C)CC` [LKWGAILKHIIK], for which the MIC came to 3.7 µM (≈ 5.25 µg/mL) in the experiment on Bacillus subtilis 168; 5.1 µM (≈ 7.24 µg/mL) in experiment [11]; 3.7 µM (≈ 5.25 µg/mL) with Escherichia coli B; 3.7 µM (≈ 5.25 µg/mL) in [12]; 46.7 µM (≈ 66.3 µg/mL) with Pseudomonas aeruginosa; 11.7 µM (≈ 16.6 µg/mL) with Staphylococcus aureus.

For `CC(C)C[C@H](NC(=O)[C@H](C)NC(=O)[C@H](C)NC(=O)CNC(=O)[C@H](Cc1c[nH]c2ccccc12)NC(=O)[C@H](CC(N)=O)NC(=O)[C@@H](N)CC(C)C)C(=O)N[C@@H](CCCCN)C(=O)N[C@@H](Cc1cnc[nH]1)C(=O)N[C@@H](C)C(=O)N[C@@H](C)C(=O)N[C@@H](CCCCN)C(N)=O` [LNWGAALKHAAK], the MIC was no less than 100 µM in the experiment on Bacillus subtilis 168; no less than 100 µM in experiment [11]; no less than 100 µM in the experiment with Escherichia coli B; no less than 100 µM in experiment [12]; greater than 100 µM in the experiment on Pseudomonas aeruginosa; greater than 100 µM in the experiment on Staphylococcus aureus.

For the molecule `CC[C@H](C)[C@H](NC(=O)[C@H](CCCN=C(N)N)NC(=O)[C@H](Cc1c[nH]c2ccccc12)NC(=O)[C@H](CC(C)C)NC(=O)[C@@H](N)CCCN=C(N)N)C(=O)N[C@H](C(=O)N[C@H](C(=O)N[C@H](C(=O)N[C@@H](CCCN=C(N)N)C(=O)N[C@H](C(=O)N[C@@H](C)C(=O)N[C@@H](CCCN=C(N)N)C(N)=O)C(C)C)[C@@H](C)CC)C(C)C)C(C)C` [RLWRIVVIRVAR], the MIC in the experiment on Candida albicans is 5.21 µM (≈ 7.99 µg/mL); in [13], 1.3 µM (≈ 2 µg/mL); against Escherichia coli UB1005 it was 1.3 µM (≈ 2 µg/mL); in experiment [7] it was no less than 32 µM; in experiment [8] it was no less than 32 µM; in experiment [9] it was no less than 32 µM. Also, the MIC was determined as 5.21 µM (≈ 7.99 µg/mL) in experiment [14]; 16 µM (≈ 24.6 µg/mL) in experiment [10]; 5.21 µM (≈ 7.99 µg/mL) in [15]; 1.3 µM (≈ 2 µg/mL) in [6]; 0.325 µM (≈ 0.5 µg/mL) in experiment [16].

As for `CC(C)C[C@H](NC(=O)[C@H](CC(C)C)NC(=O)[C@@H](N)[C@@H](C)O)C(=O)N[C@@H](CCCCN)C(=O)N[C@@H](CCCCN)C(=O)N[C@H](C(=O)N[C@@H](CC(C)C)C(=O)N[C@@H](CCCCN)C(=O)N[C@@H](C)C(=O)N[C@@H](C)C(=O)N[C@@H](C)C(N)=O)C(C)C` [TLLKKVLKAAA], the MIC in experiment [17] was no less than 50 µM; in experiment [18], no less than 50 µM; in experiment [19], greater than 50 µM; in experiment [6], greater than 50 µM.

`CC(C)C[C@H](NC(=O)CNC(=O)[C@H](C)NC(=O)[C@H](CCCN=C(N)N)NC(=O)[C@H](CO)NC(=O)[C@H](CO)NC(=O)[C@H](CCCN=C(N)N)NC(=O)[C@@H](N)[C@@H](C)O)C(=O)N[C@@H](CCC(N)=O)C(=O)N[C@@H](Cc1c[nH]c2ccccc12)C(=O)N[C@@H](C)C(=O)N[C@H](C(=O)NCC(=O)N[C@@H](CCCN=C(N)N)C(=O)N[C@H](C(=O)N[C@@H](Cc1cnc[nH]1)C(=O)N[C@@H](CCCN=C(N)N)C(=O)N[C@@H](CC(C)C)C(=O)N[C@@H](CC(C)C)C(=O)N[C@@H](CCCN=C(N)N)C(=O)N[C@@H](CCCCN)C(=O)O)C(C)C)C(C)C` [TRSSRAGLQWAVGRVHRLLRK] yielded an MIC in [20] of 6 µM (≈ 14.7 µg/mL).
